Experimental data taken from ChEMBL document CHEMBL1201862, “PubChem BioAssay data set” (2004).
Active and inactive are the calls of the source.

Key:
Estrogen receptor = target: T1, Estrogen receptor (Homo sapiens, UniProt P03372);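 further: potency for inhibiting coactivator peptide recruitment to the receptor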
T1 sequence (P03372 whole entry): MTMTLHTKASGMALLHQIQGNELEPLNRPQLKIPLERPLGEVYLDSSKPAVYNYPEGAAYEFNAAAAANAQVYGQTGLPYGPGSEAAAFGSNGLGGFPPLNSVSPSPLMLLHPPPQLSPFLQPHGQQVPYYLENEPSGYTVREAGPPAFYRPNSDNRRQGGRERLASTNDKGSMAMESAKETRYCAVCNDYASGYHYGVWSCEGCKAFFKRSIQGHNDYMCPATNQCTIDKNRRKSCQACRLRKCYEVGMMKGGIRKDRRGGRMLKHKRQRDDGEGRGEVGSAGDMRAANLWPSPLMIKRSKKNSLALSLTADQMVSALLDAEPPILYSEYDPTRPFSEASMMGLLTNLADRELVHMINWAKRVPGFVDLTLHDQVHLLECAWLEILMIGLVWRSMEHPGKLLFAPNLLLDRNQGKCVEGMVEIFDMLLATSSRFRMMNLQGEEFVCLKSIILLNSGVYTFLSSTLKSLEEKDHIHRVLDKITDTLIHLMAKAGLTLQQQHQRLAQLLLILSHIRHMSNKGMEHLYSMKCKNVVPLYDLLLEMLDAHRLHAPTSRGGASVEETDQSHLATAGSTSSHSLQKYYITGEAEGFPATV

Estrogen receptor beta = Estrogen receptor beta (Homo sapiens, UniProt Q92731);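 further: recombinant ER-beta bound to coactivator SRC1 peptide in presence of estradiol agonist; inhibitors block coactivator peptide binding and lower the FRET signal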
Estrogen receptor beta, sequence (Q92731 whole entry): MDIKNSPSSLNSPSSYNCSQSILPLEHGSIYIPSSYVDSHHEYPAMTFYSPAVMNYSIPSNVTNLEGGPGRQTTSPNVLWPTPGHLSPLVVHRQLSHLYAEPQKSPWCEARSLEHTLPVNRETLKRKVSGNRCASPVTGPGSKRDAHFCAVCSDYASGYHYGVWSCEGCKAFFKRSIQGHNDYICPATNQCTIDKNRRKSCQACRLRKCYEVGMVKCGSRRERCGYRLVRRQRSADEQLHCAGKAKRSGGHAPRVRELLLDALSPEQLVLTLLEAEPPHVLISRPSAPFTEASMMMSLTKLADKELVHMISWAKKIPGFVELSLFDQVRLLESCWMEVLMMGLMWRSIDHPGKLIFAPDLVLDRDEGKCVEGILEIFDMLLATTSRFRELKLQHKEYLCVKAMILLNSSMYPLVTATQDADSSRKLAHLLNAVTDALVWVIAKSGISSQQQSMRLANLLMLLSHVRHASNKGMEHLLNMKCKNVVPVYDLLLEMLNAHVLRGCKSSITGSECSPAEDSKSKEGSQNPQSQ

[1] = viability loss in THP-1 monocytes – THP-1 cells, cytotoxicity control for Vif-APOBEC3G degradation inhibitor project, dose response (AID 1117359); assay type: functional; details: THP-1
[2] = HIV-1 Vif–A3G interaction blockers – biochemical, TR-FRET, GST-Vif 1-94, biotin-A3G peptide, dose response retest, primary screen (AID 1117319); assay type: functional;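 further: TR-FRET signal of purified GST-Vif binding a biotinylated A3G peptide; inhibitors lower the FRET signal by blocking Vif and A3G binding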
[3] = target: T2, Voltage-gated N-type calcium channel alpha-1B subunit/Amyloid beta A4 precursor protein-binding family A member 1 (Homo sapiens, UniProt Q00975+Q02410); assay type: protein assay
T2 sequence (Q00975 whole entry): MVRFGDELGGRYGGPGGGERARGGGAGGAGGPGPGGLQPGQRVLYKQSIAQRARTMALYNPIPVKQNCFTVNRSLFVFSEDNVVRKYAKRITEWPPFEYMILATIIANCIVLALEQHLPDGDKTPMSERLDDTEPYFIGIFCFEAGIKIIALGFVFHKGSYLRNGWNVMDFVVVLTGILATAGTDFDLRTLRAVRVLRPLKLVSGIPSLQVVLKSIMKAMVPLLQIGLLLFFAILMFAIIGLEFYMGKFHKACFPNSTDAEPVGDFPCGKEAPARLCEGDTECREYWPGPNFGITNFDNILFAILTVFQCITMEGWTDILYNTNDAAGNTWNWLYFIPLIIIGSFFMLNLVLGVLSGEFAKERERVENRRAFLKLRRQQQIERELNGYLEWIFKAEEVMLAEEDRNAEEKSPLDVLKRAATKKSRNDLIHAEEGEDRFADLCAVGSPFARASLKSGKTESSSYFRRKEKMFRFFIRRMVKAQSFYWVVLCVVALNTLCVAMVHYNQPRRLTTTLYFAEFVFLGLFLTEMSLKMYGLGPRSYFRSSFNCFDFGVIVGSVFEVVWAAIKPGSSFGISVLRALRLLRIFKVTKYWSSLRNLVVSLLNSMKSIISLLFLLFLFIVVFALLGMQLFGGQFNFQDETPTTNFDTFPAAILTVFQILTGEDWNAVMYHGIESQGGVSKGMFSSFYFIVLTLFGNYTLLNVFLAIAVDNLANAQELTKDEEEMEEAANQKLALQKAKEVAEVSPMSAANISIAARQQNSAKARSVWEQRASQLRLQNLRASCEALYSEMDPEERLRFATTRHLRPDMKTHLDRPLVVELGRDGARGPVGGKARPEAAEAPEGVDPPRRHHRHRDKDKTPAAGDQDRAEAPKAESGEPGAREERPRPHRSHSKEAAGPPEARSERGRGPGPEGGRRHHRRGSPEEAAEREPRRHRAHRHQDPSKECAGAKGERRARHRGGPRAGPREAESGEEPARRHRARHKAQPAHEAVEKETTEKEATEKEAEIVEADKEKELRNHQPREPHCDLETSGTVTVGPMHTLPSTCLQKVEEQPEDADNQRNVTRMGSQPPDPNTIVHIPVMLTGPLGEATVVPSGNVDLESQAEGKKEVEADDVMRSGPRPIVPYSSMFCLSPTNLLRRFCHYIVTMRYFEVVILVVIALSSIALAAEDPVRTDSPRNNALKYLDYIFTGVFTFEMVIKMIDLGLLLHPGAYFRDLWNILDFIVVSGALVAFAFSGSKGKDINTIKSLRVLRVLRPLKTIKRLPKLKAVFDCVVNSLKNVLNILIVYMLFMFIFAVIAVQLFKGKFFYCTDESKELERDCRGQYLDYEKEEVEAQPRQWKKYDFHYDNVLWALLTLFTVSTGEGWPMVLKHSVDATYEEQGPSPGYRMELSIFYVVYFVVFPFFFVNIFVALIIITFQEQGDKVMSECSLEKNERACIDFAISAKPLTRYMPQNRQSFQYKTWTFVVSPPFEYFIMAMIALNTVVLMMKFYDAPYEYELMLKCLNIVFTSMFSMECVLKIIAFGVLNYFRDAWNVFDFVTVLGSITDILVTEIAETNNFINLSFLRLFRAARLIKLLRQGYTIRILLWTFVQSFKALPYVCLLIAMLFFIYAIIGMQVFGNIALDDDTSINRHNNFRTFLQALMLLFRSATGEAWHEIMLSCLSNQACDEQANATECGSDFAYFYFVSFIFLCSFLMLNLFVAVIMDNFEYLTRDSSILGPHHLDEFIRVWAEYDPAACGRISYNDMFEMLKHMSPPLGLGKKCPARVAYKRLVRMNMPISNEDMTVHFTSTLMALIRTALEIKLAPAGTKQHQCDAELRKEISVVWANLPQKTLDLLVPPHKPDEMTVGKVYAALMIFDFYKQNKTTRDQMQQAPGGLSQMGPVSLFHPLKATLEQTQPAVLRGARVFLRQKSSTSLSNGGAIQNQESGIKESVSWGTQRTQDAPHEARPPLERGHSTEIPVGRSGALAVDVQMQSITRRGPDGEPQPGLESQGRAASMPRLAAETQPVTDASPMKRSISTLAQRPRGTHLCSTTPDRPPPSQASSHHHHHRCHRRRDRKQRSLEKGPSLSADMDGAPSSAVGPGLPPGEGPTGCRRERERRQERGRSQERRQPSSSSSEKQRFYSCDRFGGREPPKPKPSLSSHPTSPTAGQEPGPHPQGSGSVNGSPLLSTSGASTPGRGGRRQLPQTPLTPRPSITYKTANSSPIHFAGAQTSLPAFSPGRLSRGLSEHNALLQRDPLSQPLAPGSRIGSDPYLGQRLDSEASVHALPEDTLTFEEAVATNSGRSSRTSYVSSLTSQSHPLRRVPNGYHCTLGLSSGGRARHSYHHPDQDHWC
T2 sequence (Q02410 whole entry): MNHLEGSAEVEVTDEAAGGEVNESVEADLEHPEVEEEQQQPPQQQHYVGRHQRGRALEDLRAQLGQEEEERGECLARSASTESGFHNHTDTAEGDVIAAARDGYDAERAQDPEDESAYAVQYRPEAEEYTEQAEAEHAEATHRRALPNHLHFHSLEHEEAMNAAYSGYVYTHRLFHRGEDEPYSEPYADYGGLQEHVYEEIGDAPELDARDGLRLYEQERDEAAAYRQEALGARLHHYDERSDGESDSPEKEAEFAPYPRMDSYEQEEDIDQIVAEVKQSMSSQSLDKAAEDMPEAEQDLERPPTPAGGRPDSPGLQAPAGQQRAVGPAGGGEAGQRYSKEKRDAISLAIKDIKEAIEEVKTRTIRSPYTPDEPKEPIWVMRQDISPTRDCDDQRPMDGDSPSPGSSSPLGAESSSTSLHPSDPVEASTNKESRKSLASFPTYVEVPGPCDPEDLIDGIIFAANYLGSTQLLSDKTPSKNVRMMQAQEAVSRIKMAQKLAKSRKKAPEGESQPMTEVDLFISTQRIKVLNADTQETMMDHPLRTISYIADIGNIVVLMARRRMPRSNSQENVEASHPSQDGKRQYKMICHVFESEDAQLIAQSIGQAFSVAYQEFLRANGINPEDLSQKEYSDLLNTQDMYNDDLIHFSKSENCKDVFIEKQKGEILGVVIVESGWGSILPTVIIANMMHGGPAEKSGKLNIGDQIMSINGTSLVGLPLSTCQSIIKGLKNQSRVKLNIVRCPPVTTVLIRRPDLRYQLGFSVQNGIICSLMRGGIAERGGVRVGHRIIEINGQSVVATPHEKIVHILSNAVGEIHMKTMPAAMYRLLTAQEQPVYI

[4] = target: T2, Voltage-gated N-type calcium channel alpha-1B subunit/Amyloid beta A4 precursor protein-binding family A member 1; assay type: protein assay; remark: listed apart in the source
Cytochrome P450 2C19 = Cytochrome P450 2C19 (Homo sapiens, UniProt P33261); test: Cytochrome panel assay with activity outcomes. Panel member name: p450-cyp2c19 Compounds with AC50 equal or less than 10 uM are considered active; assay type: functional; details: read-out: AC50
Cytochrome P450 2C19, sequence (P33261 whole entry): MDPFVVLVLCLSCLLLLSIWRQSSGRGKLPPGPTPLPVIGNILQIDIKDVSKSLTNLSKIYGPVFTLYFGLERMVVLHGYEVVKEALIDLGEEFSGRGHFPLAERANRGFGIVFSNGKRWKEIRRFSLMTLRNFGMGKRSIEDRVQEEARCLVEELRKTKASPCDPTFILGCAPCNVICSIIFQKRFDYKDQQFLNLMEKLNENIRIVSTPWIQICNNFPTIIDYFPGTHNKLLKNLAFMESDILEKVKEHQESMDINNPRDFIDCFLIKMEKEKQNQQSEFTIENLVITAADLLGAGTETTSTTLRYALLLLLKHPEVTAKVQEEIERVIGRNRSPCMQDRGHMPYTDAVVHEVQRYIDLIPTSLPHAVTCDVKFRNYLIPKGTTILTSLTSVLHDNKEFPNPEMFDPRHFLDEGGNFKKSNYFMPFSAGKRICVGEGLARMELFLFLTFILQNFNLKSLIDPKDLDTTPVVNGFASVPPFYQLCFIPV

[5] = target: 26S proteasome non-ATPase regulatory subunit 14 (Homo sapiens, UniProt O00487); test: inhibition of proteasome subunit RPN11 – biochemical, fluorescence polarization, uHTS hits, confirmation (AID 602368); assay type: functional
26S proteasome non-ATPase regulatory subunit 14, sequence (O00487 whole entry): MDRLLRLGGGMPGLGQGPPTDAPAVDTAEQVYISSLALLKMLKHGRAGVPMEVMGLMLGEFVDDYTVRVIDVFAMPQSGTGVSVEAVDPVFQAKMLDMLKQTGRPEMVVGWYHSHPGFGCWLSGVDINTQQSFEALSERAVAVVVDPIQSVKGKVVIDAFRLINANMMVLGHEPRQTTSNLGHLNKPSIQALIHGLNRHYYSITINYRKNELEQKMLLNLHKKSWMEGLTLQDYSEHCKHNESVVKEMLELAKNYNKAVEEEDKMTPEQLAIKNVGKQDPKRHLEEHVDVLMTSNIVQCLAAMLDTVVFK

[6] = target: 72 kDa type IV collagenase (Homo sapiens, UniProt P08253); test: Dose Response validation of uHTS RPN11 inhibitor hits using a MMP-2 Fluorescence assay.; assay type: functional
Prothrombin = Prothrombin (Bos taurus, UniProt P00735); test: thrombin protease inhibitors – biochemical, fluorescence polarization, uHTS hits, dose response (AID 602369); assay type: functional
Fibrinogen beta chain [7] = target: T3, Fibrinogen beta chain (Homo sapiens, UniProt P02675); test: Fluorescence polarization-based biochemical high throughput dose response assay to identify inhibitors that disrupt the binding of a cyclic peptide (Tn6) to the fibrin proteolytic product D-Dimer and fragment E complex [DD(E )].
T3 sequence (P02675 whole entry, the tested form may be a part): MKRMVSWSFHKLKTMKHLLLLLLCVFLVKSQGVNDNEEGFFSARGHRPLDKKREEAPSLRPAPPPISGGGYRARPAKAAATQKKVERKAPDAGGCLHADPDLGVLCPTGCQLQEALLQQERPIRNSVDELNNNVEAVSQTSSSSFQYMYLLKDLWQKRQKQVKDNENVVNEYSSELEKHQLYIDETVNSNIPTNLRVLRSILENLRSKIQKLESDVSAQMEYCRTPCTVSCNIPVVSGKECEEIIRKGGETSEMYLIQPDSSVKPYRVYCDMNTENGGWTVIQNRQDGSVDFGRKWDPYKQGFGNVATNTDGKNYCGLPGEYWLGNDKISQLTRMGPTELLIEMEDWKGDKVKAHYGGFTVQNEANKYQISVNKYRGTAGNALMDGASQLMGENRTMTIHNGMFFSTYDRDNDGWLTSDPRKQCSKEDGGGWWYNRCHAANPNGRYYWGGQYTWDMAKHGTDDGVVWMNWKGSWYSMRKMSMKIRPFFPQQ

Fibrinogen beta chain [8] = target: T3, Fibrinogen beta chain; test: Fluorescence polarization-based biochemical high throughput dose response assay to identify inhibitors that disrupt the binding of a cyclic peptide (Tn7) to the fibrin proteolytic product D-Dimer and fragment E complex [DD(E )].
Cytochrome P450 3A4 = Cytochrome P450 3A4 (Homo sapiens, UniProt P08684);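 further: CYP3A4 tested as one member of a cytochrome P450 panel screen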
Paired box protein Pax-8 = Paired box protein Pax-8 (Homo sapiens, UniProt Q06710); test: PAX8 transcriptional activity inhibition in RMG-I – RMG-I cells, luciferase, cherry-pick, dose response (AID 687027); assay type: functional, cell-based;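 further: luciferase reporter driven by Pax8 target thyroperoxidase promoter measured by SteadyGlo luminescence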
[9] = inhibitors acting on PAX2 in cells – cell-based, plate reader, dry powder samples, selectivity assay for PAX8 inhibitor project, dose response (AID 743048); assay type: functional;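 further: HEK293 cells carrying a WT1 promoter luciferase reporter driven by expressed Pax2; potency is for inhibition of Pax2 driven reporter signal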
[10] = OVCAR-3 cell viability loss – plate reader, dry powder samples, PAX8 inhibitor project, dose response (AID 743044); assay type: functional, cell-based
[11] = PAX5 cellular inhibition readout – cell-based, plate reader, dry powder samples, selectivity assay for PAX8 inhibitor project, dose response (AID 743047); assay type: functional;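 further: HEK293 cells carrying a Pax5 driven CD19 promoter luciferase reporter; potency of inhibitors that lower reporter luminescence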
[12] = OV-90 cell viability loss – plate reader, dry powder, SA8, PAX8 inhibitor project, dose response (AID 743149); assay type: functional, cell-based
[13] = PAX8-dependent cell viability loss – plate reader, dry powder, dose response (AID 743049); assay type: functional, cell-based
[14] = target: Heat shock protein HSP 90-alpha (Homo sapiens, UniProt P07900); test: Luminescence-based dose response biochemical high throughput screening assay for inhibitors of the Heat Shock Protein 90 (HSP90). [Related pubchem assays: 1831 (Summary AID.), 1846 (Confirmation screen.), 1789 (Primary screen.)]
Protein skinhead-1 = target: T4, Protein skinhead-1 (Caenorhabditis elegans, UniProt P34707); assay type: functional
T4 sequence (P34707 whole entry): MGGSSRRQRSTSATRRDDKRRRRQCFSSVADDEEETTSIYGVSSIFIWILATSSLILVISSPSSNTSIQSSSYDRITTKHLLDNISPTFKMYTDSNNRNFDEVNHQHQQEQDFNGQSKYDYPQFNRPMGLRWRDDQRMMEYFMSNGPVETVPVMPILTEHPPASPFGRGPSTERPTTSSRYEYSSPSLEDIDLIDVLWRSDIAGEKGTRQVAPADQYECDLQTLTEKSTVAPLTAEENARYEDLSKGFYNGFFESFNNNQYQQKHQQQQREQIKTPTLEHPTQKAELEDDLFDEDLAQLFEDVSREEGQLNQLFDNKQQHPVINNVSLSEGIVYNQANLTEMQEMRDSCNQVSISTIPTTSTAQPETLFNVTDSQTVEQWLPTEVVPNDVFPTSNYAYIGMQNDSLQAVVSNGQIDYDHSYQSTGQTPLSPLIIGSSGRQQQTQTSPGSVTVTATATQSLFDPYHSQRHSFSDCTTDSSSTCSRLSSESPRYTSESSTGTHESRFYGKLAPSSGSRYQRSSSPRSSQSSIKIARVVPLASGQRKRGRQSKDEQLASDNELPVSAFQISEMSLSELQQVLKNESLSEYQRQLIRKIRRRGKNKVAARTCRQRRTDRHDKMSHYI

[15] = Trypanosoma cruzi growth suppression in host cells – NIH3T3 host cells, beta-gal luminescence, confirmation (AID 2044); assay type: functional, cell-based;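 further: intracellular parasites grown in NIH/3T3 mouse fibroblasts as host cells; luminescent beta-galactosidase reporter signal from transgenic T. cruzi replicating inside host cells; inhibitors lower the luminescence signal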
[16] = NIH3T3 cell viability loss – ATP luminescence, mouse fibroblasts, counter-screen, dose response (AID 2010); assay type: functional, cell-based;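 further: cells exposed to compound for about 90 hours before reading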
[17] = viability loss in Vero cells – cytotoxicity control for Vif-APOBEC3G degradation inhibitor project, dose response (AID 1117358); assay type: functional; details: Vero
Vero = test: viability of Vero cells under compound – cytotoxicity control for flavivirus capping enzyme inhibitors (AID 588742); assay type: functional; details: Chlorocebus sabaeus
Protein Tat = Protein Tat (Human immunodeficiency virus type 1 group M subtype B (isolate HXB2)(HIV-1), UniProt P04608); assay type: functional;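 further: tat binding to TAR RNA read out by fluorescence polarization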
[18] = IC50 of insulin release inhibition, rat insulinoma INS-1E line, 5 mM glucose, cell-based (AID 1117331); assay type: functional
[19] = CellTiter-Glo luminescence survival assay, SW480 colon tumor line, concentration-response curve, half-maximal inhibitory concentration (AID 1117338); assay type: functional
[20] = RKO cell viability reduction, dose response, CellTiter-Glo luminescence (AID 1117322); assay type: functional
[21] = cytotoxicity toward HCT116 cells – cell-based, CellTiter-Glo luminescence, IC50, dose response (AID 1117332); assay type: functional; details: HCT-116
[22] = SNU-C1 cell viability reduction, dose response, CellTiter-Glo luminescence (AID 1117323); assay type: functional, cell-based
[23] = cytotoxicity toward Colo320 cells – cell-based, CellTiter-Glo luminescence, IC50, dose response (AID 1117334); assay type: functional; details: COLO 320
[24] = cytotoxicity toward HT-29 cells – cell-based, CellTiter-Glo luminescence, IC50, dose response (AID 1117330); assay type: functional
[25] = Reduced DLD-1 viability, concentration-response, CellTiter-Glo luminescence (AID 1117352); assay type: functional
[26] = HCT116 cell viability decrease, GSK3B pretreatment – CellTiter-Glo, IC50, dose response (AID 1117339); assay type: functional; details: HCT-116

Which IC50 (Estrogen receptor) does the source give for `CSc1ccc(C2C(C#N)=C(N)Oc3c2ccc(=O)c2c(C)oc(C)c32)cc1` (stereo not given) here?
The IC50 was > 50 µM (not active).

And the IC50 (Estrogen receptor beta)?
The IC50 was > 50 µM (not active).

And the CC50 [1]?
The CC50 was > 40 µM (active).

What about the IC50 [2] of the same compound?
Its IC50 is > 53.2 µM (active).

What does the source list for `NS(=O)(=O)c1ccc(NS(=O)(=O)c2ccc(NC(=O)c3ccc(-c4ccccc4)cc3)cc2)cc1`?
IC50 [3]: 12.1 µM (active); IC50 [4]: > 50 µM (inactive); AC50 (Cytochrome P450 2C19): 0.562 µM (inconclusive); IC50 [5]: 6.71 µM (active); IC50 [6]: > 100 µM (inactive); IC50 (Prothrombin): 33.4 µM (active); IC50 (Fibrinogen beta chain [7]): 14.3 µM (inactive); IC50 (Fibrinogen beta chain [8]): > 83.3 µM (inactive); AC50 (Cytochrome P450 3A4): inconclusive

Which AC50 (Paired box protein Pax-8) does the source give for `CC(=O)N1CCOc2ccc(S(=O)(=O)N3CCN(c4cccc(C(F)(F)F)c4)CC3)cc21` here?
Its AC50 is 2.36 µM (active).

And the AC50 [9]?
The AC50 was 30.9 µM (active).

What about the AC50 [10] of the same compound?
Its AC50 is 17.9 µM (active).

What about the AC50 [11] of the same compound?
The AC50 was 45.3 µM (active).

What about the AC50 [12] of the same compound?
The AC50 was 63 µM (active).

And the AC50 [13]?
Its AC50 is 94.5 µM (active).

Which IC50 [14] does the source give for `Cc1oc(-c2ccc(-c3ccccc3)cc2)nc1CN(C)C1CCOC1` (stereo not given) here?
Its IC50 is 0.235 µM (active).

And the IC50 (Protein skinhead-1)?
The IC50 was 13.7 µM (active).

With `CN(C)S(=O)(=O)c1ccc(NC(=O)N2CCN(c3cccc(C(F)(F)F)c3)CC2)cc1` as the compound, how does the EC50 [15] read?
Its EC50 is 3.61 µM (active).

And the EC50 [16]?
Its EC50 is > 60 µM (not active).

What about the CC50 [17] of the same compound?
Its CC50 is > 40 µM (active).

Which results are given for `COC(=O)C1=C(O)/C(=C\c2ccc(CNC(=O)C(=O)Nc3ccc(C)cc3)o2)N=C1C`?
CC50 (Vero): 19 µM (active); IC50 (Protein Tat): 22.5 µM (inconclusive)

For `CN1CCN(CCC(=O)N2c3ccccc3Sc3ccc(C(F)(F)F)cc32)CC1` [FTORMETAZINE], which IC50 [18] is on record?
Its IC50 is > 11.1 µM (inactive).

Which IC50 [19] does the source give for `COc1ccc2c(c1)c1c3n2CCN(C)C3=NCC1` [METRALINDOLE] here?
The IC50 was > 20 µM (inactive).

What about the IC50 [20] of the same compound?
Its IC50 is > 20 µM (inactive).

And the IC50 [21]?
The IC50 was > 20 µM (inactive).

And the IC50 [22]?
The IC50 was > 20 µM (inactive).

What about the IC50 [23] of the same compound?
Its IC50 is > 20 µM (inactive).

What about the IC50 [24] of the same compound?
The IC50 was > 20 µM (inactive).

And the IC50 [25]?
The IC50 was > 20 µM (inactive).

What about the IC50 [26] of the same compound?
Its IC50 is > 20 µM (inactive).
